Data on 18 molecules can be found in US20220282217A1, “COMPOSITIONS AND METHODS FOR PREPARING T CELL COMPOSITIONS AND USES THEREOF” (priority 2019, published 2022).

Where a SMILES comes first, the peptide text is derived from it.

Test [1] has as its target HLA-A02.01 (Homo sapiens, UniProt P04439, D140Y/D185E/D98H/E176V/E277Q/G131W/G231S/I119V/I121R/I166T/I218V/L300P/L318F/N151K/N90K/P208A/P217A/Q86G/Q94H/R138H/R169H/T345S). The experiment in a line: Class I MHC peptide binding affinity (displacement of radiolabeled reference peptide). As to conditions: allele A02.01; read-out: Observed Affinity (IC50; (nM)). Put shortly:
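Read-out: radioactivity of reference peptide retained on MHCI, separated from free label by gel-filtration size exclusion. Competing peptides are titrated against the preformed complexes and incubated two days beforehand.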

Test [2] has as its target HLA-A03.01 (Homo sapiens, UniProt P04439). The test is described as above. As to conditions: allele A03.01; read-out: Observed Affinity (IC50; (nM)).
The target of test [3] is T1, HLA-A02.01 (Homo sapiens, UniProt P04439, D140Y/D185E/D98H/E176V/E277Q/G131W/G231S/I119V/I121R/I166T/I218V/N151K/N90K/P208A/P217A/Q86G/Q94H/R138H/R169H).
T1 construct: made in house; host or cells: E. coli
The experiment in a line: Class I MHC peptide binding stability (pMHC-I dissociation, 125I-labeled light chain). As to conditions: allele A02.01.

Test [4] concerns the target HLA-A24.02. Kind of test: Class I MHC peptide binding affinity (displacement of radiolabeled reference peptide). More on the design: species or system human. As to conditions: allele A24.02; read-out: Observed Affinity (IC50; (nM)).

As to `CC[C@H](C)[C@H](NC(=O)[C@H](Cc1ccc(O)cc1)NC(=O)[C@H](CC(C)C)NC(=O)[C@H](CO)NC(=O)[C@H](CC(N)=O)NC(=O)[C@H](CS)NC(=O)[C@H](CCC(=O)O)NC(=O)[C@H](Cc1c[nH]cn1)NC(=O)[C@H](CC(C)C)NC(=O)[C@@H](N)C(C)C)C(=O)O` (H-VLHECNSLYI-OH; N-terminus and C-terminus assumed), the 50% inhibitory concentration (IC50) was 10 nM in test [1] and 10500 nM in test [2]. The “Stability (T1/2 (h))” value in test [3] was 5.1 h. With `CC(C)C[C@H](NC(=O)[C@H](Cc1ccccc1)NC(=O)[C@H](CO)NC(=O)[C@H](CC(C)C)NC(=O)[C@H](CS)NC(=O)[C@H](CO)NC(=O)[C@H](Cc1ccccc1)NC(=O)[C@H](CC(C)C)NC(=O)[C@@H](N)CCCCN)C(=O)N[C@@H](CO)C(=O)O` (H-KLFSCLSFLS-OH; N-terminus and C-terminus assumed), the figures for the half-maximal inhibitory concentration (IC50) in test [1] and in test [2] were 0.6 nM and 104 nM, respectively. Turning to `CC(C)C[C@H](NC(=O)[C@H](CC(C)C)NC(=O)[C@H](CCC(=O)O)NC(=O)[C@@H]1CCCN1C(=O)[C@H](Cc1ccccc1)NC(=O)[C@@H](N)CCCCN)C(=O)N[C@@H](CS)C(=O)N[C@H](C(=O)N[C@@H](Cc1c[nH]c2ccccc12)C(=O)O)C(C)C` (H-KFPELLCVW-OH; N-terminus and C-terminus assumed), the IC50 in test [4] is 13.7 nM.

`CC[C@H](C)[C@H](NC(=O)[C@H](Cc1ccc(O)cc1)NC(=O)[C@H](CC(C)C)NC(=O)[C@@H](N)CC(C)C)C(=O)N[C@H](C(=O)N[C@@H](C)C(=O)N[C@@H](Cc1ccccc1)C(=O)N[C@@H](Cc1ccccc1)C(=O)N[C@@H](CC(C)C)C(=O)N[C@@H](CC(C)C)C(=O)O)[C@@H](C)O` (H-LLYITAFFLL-OH; N-terminus and C-terminus assumed): the values for the concentration for half-maximal inhibition (IC50) in test [1] and in test [4] were 323 nM and 60.1 nM, respectively.

Turning to `CC[C@H](C)[C@H](NC(=O)[C@H](CCCCN)NC(=O)[C@H](CO)NC(=O)[C@H](CCC(=O)O)NC(=O)[C@H](C)NC(=O)[C@H](CCCCN)NC(=O)[C@H](CC(C)C)NC(=O)[C@H](Cc1ccccc1)NC(=O)[C@@H](N)CCSC)C(=O)O` (H-MFLKAESKI-OH; N-terminus and C-terminus assumed), the IC50 in test [4] came out at 332 nM. Take `CC[C@H](C)[C@H](NC(=O)[C@H](Cc1ccc(O)cc1)NC(=O)[C@@H](N)CC(C)C)C(=O)N[C@H](C(=O)N[C@@H](C)C(=O)N[C@@H](Cc1ccccc1)C(=O)N[C@@H](Cc1ccccc1)C(=O)N[C@@H](CC(C)C)C(=O)N[C@@H](CC(C)C)C(=O)N[C@@H](CC(=O)O)C(=O)O)[C@@H](C)O` (H-LYITAFFLLD-OH; N-terminus and C-terminus assumed): in test [4], the 50% inhibitory concentration (IC50) stood at 0.4 nM. Still for that read-out and setting: the result for `CSCC[C@H](NC(=O)[C@@H](N)CCCNC(=N)N)C(=O)N1CCC[C@H]1C(=O)N1CCC[C@H]1C(=O)N[C@@H](CS)C(=O)N[C@@H](CC(C)C)C(=O)N[C@@H](C)C(=O)N[C@@H](CC(N)=O)C(=O)N[C@@H](Cc1ccccc1)C(=O)O` (H-RMPPCLANF-OH; N-terminus and C-terminus assumed) reads 8.7 nM. As to `CC[C@H](C)[C@H](NC(=O)[C@@H]1CCCN1C(=O)[C@H](Cc1ccccc1)NC(=O)[C@H](Cc1ccccc1)NC(=O)[C@H](CCCNC(=N)N)NC(=O)[C@H](C)NC(=O)[C@H](CC(C)C)NC(=O)[C@H](CCC(N)=O)NC(=O)[C@@H](N)[C@@H](C)O)C(=O)O`, the IC50 in test [1] was found to be 19 nM; in test [4], 52 nM. Take `CSCC[C@H](NC(=O)[C@@H](N)C(C)C)C(=O)N[C@@H](C)C(=O)NCC(=O)N[C@@H](CC(C)C)C(=O)NCC(=O)N[C@@H](CO)C(=O)N1CCC[C@H]1C(=O)N[C@@H](Cc1ccc(O)cc1)C(=O)N[C@H](C(=O)O)C(C)C` (H-VMAGLGSPYV-OH; N-terminus and C-terminus assumed): the IC50 in test [1] was found to be 102 nM; in test [2], 11200 nM. The “Stability (T1/2 (h))” value in test [3] was found to be 2.9 h.

As for `CSCC[C@H](NC(=O)[C@H](CCCNC(=N)N)NC(=O)[C@@H](N)CCCNC(=N)N)C(=O)N1CCC[C@H]1C(=O)N1CCC[C@H]1C(=O)N[C@@H](CS)C(=O)N[C@@H](CC(C)C)C(=O)N[C@@H](C)C(=O)N[C@@H](CC(N)=O)C(=O)N[C@@H](Cc1ccccc1)C(=O)O` (H-RRMPPCLANF-OH; N-terminus and C-terminus assumed), in test [4], the IC50 worked out at 141 nM. Regarding `CC[C@H](C)[C@H](NC(=O)[C@H](Cc1ccc(O)cc1)NC(=O)[C@@H](N)CC(C)C)C(=O)N[C@H](C(=O)N[C@@H](C)C(=O)N[C@@H](Cc1ccccc1)C(=O)N[C@@H](Cc1ccccc1)C(=O)N[C@@H](Cc1ccccc1)C(=O)N[C@@H](CS)C(=O)N[C@@H](Cc1c[nH]c2ccccc12)C(=O)O)[C@@H](C)O` (H-LYITAFFFCW-OH; N-terminus and C-terminus assumed), the IC50 in test [4] amounted to 45.3 nM.

Turning to `CC(C)C[C@H](NC(=O)[C@@H](NC(=O)[C@H](CO)NC(=O)[C@H](CO)NC(=O)[C@H](CC(C)C)NC(=O)[C@@H](N)CCCNC(=N)N)C(C)C)C(=O)N[C@@H](CCC(N)=O)C(=O)N[C@@H](CCCNC(=N)N)C(=O)N[C@@H](Cc1ccccc1)C(=O)O` (H-RLSSVLQRF-OH; N-terminus and C-terminus assumed), in test [4], the half-maximal inhibitory concentration (IC50) stood at 28.2 nM. Turning to `CC[C@H](C)[C@H](NC(=O)[C@H](Cc1ccc(O)cc1)NC(=O)[C@H](CS)NC(=O)[C@H](Cc1ccccc1)NC(=O)[C@@H](N)Cc1ccccc1)C(=O)N[C@@H](CC(C)C)C(=O)N[C@@H](CC(N)=O)C(=O)N[C@H](C(=O)N[C@@H](CCSC)C(=O)N[C@@H](Cc1ccccc1)C(=O)O)[C@@H](C)O` (H-FFCYILNTMF-OH; N-terminus and C-terminus assumed), the IC50 in test [4] is 73.4 nM.

For the molecule `CC[C@H](C)[C@H](NC(=O)[C@H](Cc1c[nH]c2ccccc12)NC(=O)[C@H](CC(C)C)NC(=O)[C@@H]1CCCN1C(=O)[C@H](CO)NC(=O)[C@H](CCCNC(=N)N)NC(=O)[C@H](CC(C)C)NC(=O)[C@@H](N)CCCCN)C(=O)N[C@@H](Cc1ccccc1)C(=O)O` (H-KLRSPLWIF-OH; N-terminus and C-terminus assumed), in test [4], the IC50 worked out at 828 nM. With `CSCC[C@H](NC(=O)[C@H](CCC(=O)O)NC(=O)[C@H](CC(C)C)NC(=O)[C@H](CC(C)C)NC(=O)[C@H](CC(C)C)NC(=O)CNC(=O)[C@H](Cc1ccc(O)cc1)NC(=O)[C@@H](N)CC(C)C)C(=O)N[C@@H](CC(C)C)C(=O)O` (H-LYGLLLEML-OH; N-terminus and C-terminus assumed), the IC50 in test [4] turned out to be 0.8 nM. `CC(C)C[C@H](NC(=O)[C@@H](N)CCCNC(=N)N)C(=O)N[C@@H](CO)C(=O)N[C@@H](CO)C(=O)N[C@@H](CS)C(=O)N[C@H](C(=O)N1CCC[C@H]1C(=O)N[C@H](C(=O)N[C@@H](C)C(=O)O)C(C)C)C(C)C`: the IC50 in test [2] is 439 nM. The “Stability (T1/2 (h))” value in test [3] amounted to 18.7 h. Take `CC[C@H](C)[C@H](NC(=O)[C@H](Cc1ccc(O)cc1)NC(=O)[C@@H](N)CC(C)C)C(=O)N[C@H](C(=O)N[C@@H](C)C(=O)N[C@@H](Cc1ccccc1)C(=O)N[C@@H](Cc1ccccc1)C(=O)N[C@@H](CC(C)C)C(=O)N[C@@H](CC(C)C)C(=O)O)[C@@H](C)O` (H-LYITAFFLL-OH; N-terminus and C-terminus assumed): the IC50 in test [4] is 0.1 nM. On the same count and under the same terms, in the case of `CC(C)C[C@H](NC(=O)[C@H](CS)NC(=O)[C@H](CO)NC(=O)[C@H](Cc1ccccc1)NC(=O)[C@H](CC(C)C)NC(=O)[C@H](CCCCN)NC(=O)[C@H](Cc1ccccc1)NC(=O)CN)C(=O)N[C@@H](CO)C(=O)N[C@@H](Cc1ccccc1)C(=O)O` (H-GFKLFSCLSF-OH; N-terminus and C-terminus assumed) it was 643 nM.
